Earlier results in patent US10660869B2, “Lactate powder and method for the preparation thereof” (Purac Biochem B.V., priority 2012, dated 2020).

Conditions: 1000 mg of sample dissolved in 240 ml water

SMILES: CC(O)C(=O)[O-].CC(O)C(=O)[O-].O.O.O.O.O.[Ca+2] (stereo not shown) [PURACAL® PP/FCC, calcium lactate pentahydrate]
- typical dissolution time: 25 s
